# In PubChem BioAssay (NCI):
#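 Interpolation was linear, between the two tested concentrations surrounding the appropriate level; five concentrations were tested over 48 hours in 96-well plates. GI50 is the concentration that inhibits growth by half. At the TGI there is no net growth.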
# Key:
# Experiment in all cases: NCI tumour cell line growth inhibition, 48 h
# A549 NSCLC = test system: A549 NSCLC
# NCI-H226 lung = test system: NCI-H226 lung
# CCRF-CEM leukemia = test system: CCRF-CEM leukemia
# UACC-62 melanoma = test system: UACC-62 melanoma
# HT29 colon = test system: HT29 colon
# HOP-92 NSCLC = test system: HOP-92 NSCLC
# HCT-116 colon = test system: HCT-116 colon
# U251 CNS = test system: U251 CNS
# HCT-15 colon = test system: HCT-15 colon
# DU-145 prostate = test system: DU-145 prostate
# RPMI-8226 leukemia = test system: RPMI-8226 leukemia
# A498 renal = test system: A498 renal
# K-562 leukemia = test system: K-562 leukemia
# PC-3 prostate = test system: PC-3 prostate
# KM12 colon = test system: KM12 colon
# MALME-3M melanoma = test system: MALME-3M melanoma
# SR leukemia = test system: SR leukemia
# SN12C renal = test system: SN12C renal
# OVCAR-8 ovarian = test system: OVCAR-8 ovarian
# HCC-2998 colon = test system: HCC-2998 colon
# NCI/ADR-RES ovarian = test system: NCI/ADR-RES ovarian
# TK-10 renal = test system: TK-10 renal
# MDA-MB-231 breast = test system: MDA-MB-231 breast
# MOLT-4 leukemia = test system: MOLT-4 leukemia
# ACHN renal = test system: ACHN renal
# EKVX NSCLC = test system: EKVX NSCLC
# SW-620 colon = test system: SW-620 colon
# NCI-H522 lung = test system: NCI-H522 lung
# LOX IMVI melanoma = test system: LOX IMVI melanoma
# SF-268 CNS = test system: SF-268 CNS
# COLO 205 colon = test system: COLO 205 colon
# NCI-H23 lung = test system: NCI-H23 lung
# SK-MEL-2 melanoma = test system: SK-MEL-2 melanoma
# SK-OV-3 ovarian = test system: SK-OV-3 ovarian
# SNB-75 CNS = test system: SNB-75 CNS
# IGROV1 ovarian = test system: IGROV1 ovarian
# 786-0 renal = test system: 786-0 renal
# SNB-19 CNS = test system: SNB-19 CNS
# OVCAR-3 ovarian = test system: OVCAR-3 ovarian
# RXF 393 renal = test system: RXF 393 renal
# HOP-62 NSCLC = test system: HOP-62 NSCLC
# UO-31 renal = test system: UO-31 renal
# OVCAR-4 ovarian = test system: OVCAR-4 ovarian
# T-47D breast = test system: T-47D breast
# CAKI-1 renal = test system: CAKI-1 renal
# MCF7 breast = test system: MCF7 breast
# SF-539 CNS = test system: SF-539 CNS
# BT-549 breast = test system: BT-549 breast
# SF-295 CNS = test system: SF-295 CNS
# M14 melanoma = test system: M14 melanoma
# HS 578T breast = test system: HS 578T breast
# SK-MEL-28 melanoma = test system: SK-MEL-28 melanoma
# NCI-H460 lung = test system: NCI-H460 lung
# UACC-257 melanoma = test system: UACC-257 melanoma
# MDA-MB-435 = test system: MDA-MB-435
# HL-60(TB) leukemia = test system: HL-60(TB) leukemia
# OVCAR-5 ovarian = test system: OVCAR-5 ovarian
structure (smiles),measurement,setting,value
COc1cc2cc(C(=O)N3CC(CCl)c4c3cc(N)c3ccccc43)[nH]c2c(OC)c1OC (stereo unspecified),TGI,A549 NSCLC,1.4 µM
same,TGI,NCI-H226 lung,1.13 µM
same,TGI,CCRF-CEM leukemia,< 0.01 µM
same,TGI,UACC-62 melanoma,< 0.01 µM
same,TGI,HT29 colon,1.41 µM
same,TGI,HOP-92 NSCLC,0.275 µM
same,TGI,HCT-116 colon,1.08 µM
same,TGI,U251 CNS,0.0998 µM
same,TGI,HCT-15 colon,1.58 µM
same,TGI,DU-145 prostate,0.0549 µM
same,TGI,RPMI-8226 leukemia,< 0.0107 µM
same,TGI,A498 renal,< 0.01 µM
same,TGI,K-562 leukemia,< 0.01 µM
same,TGI,PC-3 prostate,< 0.0114 µM
same,TGI,KM12 colon,0.0207 µM
same,TGI,MALME-3M melanoma,< 0.01 µM
same,TGI,SR leukemia,< 0.01 µM
same,TGI,SN12C renal,< 0.01 µM
same,TGI,OVCAR-8 ovarian,< 0.01 µM
same,TGI,HCC-2998 colon,< 0.01 µM
same,TGI,NCI/ADR-RES ovarian,< 0.01 µM
same,TGI,TK-10 renal,2.32 µM
same,TGI,MDA-MB-231 breast,0.519 µM
same,TGI,MOLT-4 leukemia,< 0.01 µM
same,TGI,ACHN renal,0.108 µM
same,TGI,EKVX NSCLC,< 0.01 µM
same,TGI,SW-620 colon,> 100 µM
same,TGI,NCI-H522 lung,< 0.01 µM
same,TGI,LOX IMVI melanoma,0.0103 µM
same,TGI,SF-268 CNS,< 0.01 µM
same,TGI,COLO 205 colon,< 0.01 µM
same,TGI,NCI-H23 lung,< 0.01 µM
same,TGI,SK-MEL-2 melanoma,< 0.01 µM
same,TGI,SK-OV-3 ovarian,0.248 µM
same,TGI,SNB-75 CNS,< 0.01 µM
same,TGI,IGROV1 ovarian,0.0401 µM
same,TGI,786-0 renal,0.0102 µM
same,TGI,SNB-19 CNS,10.5 µM
same,TGI,OVCAR-3 ovarian,< 0.01 µM
same,TGI,RXF 393 renal,< 0.01 µM
same,TGI,HOP-62 NSCLC,< 0.0109 µM
same,TGI,UO-31 renal,< 0.01 µM
same,TGI,OVCAR-4 ovarian,< 0.045 µM
same,TGI,T-47D breast,> 100 µM
same,TGI,CAKI-1 renal,< 0.01 µM
Nc1nc(Cl)c(N=Nc2ccc(Cl)cc2)c(NCC2(CO)CCC2)n1,GI50,NCI-H226 lung,77 µM
same,GI50,HOP-92 NSCLC,14.9 µM
same,TGI,HOP-92 NSCLC,64.9 µM
same,GI50,MCF7 breast,25.3 µM
same,GI50,HCT-116 colon,36.8 µM
same,GI50,U251 CNS,41.1 µM
same,GI50,SF-539 CNS,90.7 µM
same,GI50,BT-549 breast,49.8 µM
same,GI50,SF-295 CNS,49.4 µM
same,GI50,OVCAR-8 ovarian,26.8 µM
same,TGI,OVCAR-8 ovarian,88.8 µM
same,GI50,NCI/ADR-RES ovarian,41.8 µM
same,GI50,MDA-MB-231 breast,8.74 µM
same,TGI,MDA-MB-231 breast,51.1 µM
same,GI50,ACHN renal,41 µM
same,GI50,EKVX NSCLC,21.7 µM
same,GI50,LOX IMVI melanoma,41 µM
same,GI50,SF-268 CNS,46.3 µM
same,GI50,NCI-H23 lung,48 µM
same,GI50,SK-MEL-2 melanoma,89.3 µM
same,GI50,SK-OV-3 ovarian,12.6 µM
same,GI50,SNB-75 CNS,7.05 µM
same,TGI,SNB-75 CNS,30.1 µM
same,GI50,786-0 renal,10.2 µM
same,GI50,SNB-19 CNS,33.7 µM
same,GI50,M14 melanoma,98.9 µM
same,GI50,RXF 393 renal,36.5 µM
same,TGI,RXF 393 renal,61.6 µM
same,GI50,HOP-62 NSCLC,42 µM
same,TGI,HOP-62 NSCLC,82.6 µM
same,GI50,HS 578T breast,32.9 µM
same,GI50,T-47D breast,26.4 µM
same,GI50,CAKI-1 renal,2.27 µM
CN(CCNCc1cn(C)c2c1ccc1ccccc12)CCNCc1cn(C)c2c1ccc1ccccc12,TGI,A549 NSCLC,2.31 µM
same,TGI,CCRF-CEM leukemia,2.21 µM
same,TGI,HT29 colon,2.77 µM
same,TGI,HOP-92 NSCLC,3.38 µM
same,TGI,HCT-116 colon,2.33 µM
same,TGI,U251 CNS,2.11 µM
same,TGI,HCT-15 colon,2.5 µM
same,TGI,DU-145 prostate,2.76 µM
same,TGI,RPMI-8226 leukemia,> 100 µM
same,TGI,A498 renal,13.9 µM
same,TGI,PC-3 prostate,2.57 µM
same,TGI,KM12 colon,2.32 µM
same,TGI,SF-539 CNS,3.16 µM
same,TGI,MALME-3M melanoma,3.61 µM
same,TGI,SK-MEL-28 melanoma,2.84 µM
same,TGI,SR leukemia,2.88 µM
same,TGI,OVCAR-8 ovarian,3.34 µM
same,TGI,NCI-H460 lung,> 100 µM
same,TGI,NCI/ADR-RES ovarian,2.54 µM
same,TGI,MDA-MB-231 breast,2.99 µM
same,TGI,MOLT-4 leukemia,2.81 µM
same,TGI,ACHN renal,2.97 µM
same,TGI,SW-620 colon,2.57 µM
same,TGI,NCI-H522 lung,2.86 µM
same,TGI,UACC-257 melanoma,3.03 µM
same,TGI,COLO 205 colon,2.33 µM
same,TGI,NCI-H23 lung,2.67 µM
same,TGI,IGROV1 ovarian,3.24 µM
same,TGI,786-0 renal,1.83 µM
same,TGI,SNB-19 CNS,2.3 µM
same,TGI,M14 melanoma,0.904 µM
same,TGI,MDA-MB-435,2.86 µM
same,TGI,RXF 393 renal,1.71 µM
same,TGI,OVCAR-4 ovarian,2.64 µM
O=C1CC(c2cccc(Br)c2)n2cccc21 (stereo unspecified),TGI,A549 NSCLC,> 100 µM
same,TGI,NCI-H226 lung,> 100 µM
same,TGI,CCRF-CEM leukemia,> 100 µM
same,TGI,UACC-62 melanoma,> 100 µM
same,TGI,HT29 colon,> 100 µM
same,TGI,HOP-92 NSCLC,> 100 µM
same,TGI,MCF7 breast,> 100 µM
same,TGI,HCT-116 colon,> 100 µM
same,TGI,U251 CNS,> 100 µM
same,TGI,HCT-15 colon,> 100 µM
same,TGI,DU-145 prostate,> 100 µM
same,TGI,RPMI-8226 leukemia,> 100 µM
same,TGI,A498 renal,> 100 µM
same,TGI,HL-60(TB) leukemia,87.3 µM
same,TGI,K-562 leukemia,> 100 µM
same,TGI,PC-3 prostate,> 100 µM
same,TGI,KM12 colon,> 100 µM
same,TGI,SF-539 CNS,> 100 µM
same,TGI,SK-MEL-28 melanoma,> 100 µM
same,TGI,SR leukemia,> 100 µM
same,TGI,SN12C renal,> 100 µM
same,TGI,SF-295 CNS,> 100 µM
same,TGI,OVCAR-8 ovarian,> 100 µM
same,TGI,HCC-2998 colon,> 100 µM
same,TGI,NCI/ADR-RES ovarian,> 100 µM
same,TGI,TK-10 renal,> 100 µM
same,TGI,MDA-MB-231 breast,> 100 µM
same,TGI,MOLT-4 leukemia,> 100 µM
same,TGI,ACHN renal,> 100 µM
same,TGI,EKVX NSCLC,> 100 µM
same,TGI,SW-620 colon,> 100 µM
same,TGI,NCI-H522 lung,> 100 µM
same,TGI,UACC-257 melanoma,> 100 µM
same,TGI,LOX IMVI melanoma,> 100 µM
same,TGI,SF-268 CNS,> 100 µM
same,TGI,COLO 205 colon,> 100 µM
same,TGI,NCI-H23 lung,> 100 µM
same,TGI,SK-MEL-2 melanoma,95.3 µM
same,TGI,SK-OV-3 ovarian,> 100 µM
same,TGI,SNB-75 CNS,> 100 µM
same,TGI,IGROV1 ovarian,> 100 µM
same,TGI,786-0 renal,> 100 µM
same,TGI,SNB-19 CNS,> 100 µM
same,TGI,M14 melanoma,> 100 µM
same,TGI,MDA-MB-435,> 100 µM
same,TGI,OVCAR-3 ovarian,> 100 µM
same,TGI,OVCAR-5 ovarian,> 100 µM
same,TGI,RXF 393 renal,> 100 µM
same,TGI,HOP-62 NSCLC,> 100 µM
same,TGI,UO-31 renal,66.9 µM
same,TGI,OVCAR-4 ovarian,> 100 µM
same,TGI,HS 578T breast,> 100 µM
same,TGI,T-47D breast,> 100 µM
same,TGI,CAKI-1 renal,> 100 µM
